Entries after “also recorded” stand apart in the source; their conditions may differ. Read-outs that look alike come from different tables or passages of the source.
Experiments:
AMP Kinase = assay: Western blot of phosphorylated (activated) AMP Kinase in HIB1B cells; type: cell-based; details: 24 hours
Protocol: (§1) HIB1B brown fat cells were grown in DMEM (10% cosmic calf serum)+0.25 mg/ml penicillin/streptomycin at 37° C., 10% CO2.
(§2) In FIG. 2A, HIB1B cells were treated with 2 μM FCCP for 0-72 hours. In FIG. 2B, cells were treated with 50 μM FCCP for 0-48 hours. In FIG. 2C, cells were treated for 24 hours with either 50 μM FCCP or 500 μM AICAR, a compound that activates AMP Kinase. Protein was isolated, run on an SDS polyacrylamide gel, and transferred to a PVDF membrane, and blotted for the proteins indicated in the figures.

PGC-1α [1] = assay: Real time PCR of PGC-1α expression in 10T 1/2 fibroblasts; type: cell-based
Protocol: (§3) HIB1B brown fat cells were grown in DMEM (10% cosmic calf serum)+0.25 mg/ml penicillin/streptomycin at 37° C., 10% CO2. 10T 1/2 fibroblasts were grown in DMEM+10% fetal bovine serum+0.25 mg/ml penicillin/streptomycin at 37° C., 10% CO2.
(§4) 10T 1/2 cells were treated with 50 μM FCCP, 10 μM BAPTA, a calcium chelator, or both FCCP and BAPTA for 16 hours. RNA was extracted using trizol and gene expression was measured using real time PCR. All expression levels were adjusted to actin and then the fold induction of expression was determined using the untreated cells as the control.
(§5) 10T 1/2 fibroblasts were grown in DMEM+10% fetal bovine serum+0.25 mg/ml penicillin/streptomycin at 37° C., 10% CO2. HIB1B cells were grown in DMEM+10% cosmic calf serum+0.25 mg/ml penicillin/streptomycin at 37° C., 10% CO2.
(§6) In FIG. 11A, 10T 1/2 cells were treated with 50 μM FCCP for 16 hours; in FIG. 11B, cells were treated for 72 hours with 25 μM FCCP. RNA was extracted using trizol and gene expression was measured using real time PCR. All expression levels were adjusted to actin and then the fold induction of expression was determined using the untreated cells as the control. In FIG. 11C, 10T 1/2 cells were treated for 16 hours with 50 μM FCCP. Lactate levels were measured using a lactate kit (Trinity Biotech), cells were counted, and lactate was graphed as mg lactate per million cells. In FIG. 12, HIB1B preadipocytes were treated with 25 μM FCCP, 250 μM DNP, 750 μM DNP or 1 mM DNP. RNA was extracted and run on a 1% agarose-formaldehyde gel (30 μg of RNA per lane). The gel was transferred to a nylon membrane and was probed for PGC-1α RNA and 36B4 RNA (36B4 represents the loading control).

PGC-1β [2] = assay: Real time PCR of PGC-1β expression in 10T 1/2 fibroblasts; type: cell-based; details: 16 hours
Protocol: as §3, §4, §5
as §6, with “In FIG. 12, HIB1B preadipocytes were treated with 25 μM FCCP, 250 μM DNP, 750 μM DNP or 1 mM DNP. RNA was extracted and run on a 1% agarose-formaldehyde gel (30 μg of RNA per lane). The gel was transferred to a nylon membrane and was probed for PGC-1α RNA and 36B4 RNA (36B4 represents the loading control).” left out

cytochrome c [3] = assay: Real time PCR of cytochrome c expression in 10T 1/2 fibroblasts; type: cell-based; details: 16 hours
Protocol: as §3, §4, §5
as §6, with “In FIG. 12, HIB1B preadipocytes were treated with 25 μM FCCP, 250 μM DNP, 750 μM DNP or 1 mM DNP. RNA was extracted and run on a 1% agarose-formaldehyde gel (30 μg of RNA per lane). The gel was transferred to a nylon membrane and was probed for PGC-1α RNA and 36B4 RNA (36B4 represents the loading control).” left out

COX II [4] = assay: Real time PCR of COX II expression in 10T 1/2 fibroblasts; type: cell-based; details: 16 hours
Protocol: as §3, §4, §5
as §6, with “In FIG. 12, HIB1B preadipocytes were treated with 25 μM FCCP, 250 μM DNP, 750 μM DNP or 1 mM DNP. RNA was extracted and run on a 1% agarose-formaldehyde gel (30 μg of RNA per lane). The gel was transferred to a nylon membrane and was probed for PGC-1α RNA and 36B4 RNA (36B4 represents the loading control).” left out

ATP synthase = assay: Real time PCR of ATP synthase expression in 10T 1/2 fibroblasts; type: cell-based; details: 16 hours
Protocol: as §3, §4, §5
as §6, with “In FIG. 12, HIB1B preadipocytes were treated with 25 μM FCCP, 250 μM DNP, 750 μM DNP or 1 mM DNP. RNA was extracted and run on a 1% agarose-formaldehyde gel (30 μg of RNA per lane). The gel was transferred to a nylon membrane and was probed for PGC-1α RNA and 36B4 RNA (36B4 represents the loading control).” left out

PGC-1α [5] = assay: Northern blot of PGC-1α expression in HIB1B brown fat cells; type: cell-based
Protocol: as §1
(§7) In FIGS. 1A and 1B, HIB1B cells were treated with 25 μM FCCP for 0-25 hours. In FIG. 1C, HIB1B cells were treated for 5 hours with 0-200 μM FCCP. RNA was extracted using trizol and was resuspended in ddH2O. RNA was run on a 1% agarose-formaldehyde gel, and 30 ug of RNA was used per lane. 36B4 was used as the loading control.
In FIG. 5A, HIB1B cells were treated with 0-15 μM Antimycin A, a Complex III inhibitor. In FIG. 5B, cells were treated for either 5 or 10 hours with 0-50 μM Atractlyoside, an adenine nucleotide transporter (ANT) inhibitor. RNA was extracted, run on a formaldehyde gel and transferred to a nylon membrane as previously described. Membranes were blotted for PGC-1α mRNA.
In FIG. 7, HIB1B cells were treated for 5 hours with 0-50 μM Ruthenium Red (RR), an inhibitor of the mitochondrial Ca^2+ uniporter, simultaneously with either 5 μM or 25 μM FCCP as indicated in the figure. Untreated cells served as a control. RNA was extracted and analyzed as previously described. Membranes were blotted for PGC-1α. 36B4 served as the loading control.
as §6

animals = details: large doses of DNP; cited from earlier work
PGC-1β [6] = details: HIB1B cells
Protocol: as §1, §7

PGC-1α protein = details: HIB1B cells, 2 μM FCCP, up to 72 hours
Protocol: as §1, §2

cytochrome c protein = details: HIB1B cells, 50 μM FCCP, up to 48 hours
Protocol: as §1, §2

PGC-1α [7] = details: HIB1B cells, 8 hours
Protocol: as §1
In FIG. 3, cells were treated for 8 hours as indicated on the figure. RNA was extracted as previously described and quantified using real time PCR. PGC-1α mRNA levels were normalized to TBP prior to analysis.

HIB1B brown fat cells = details: 25 μM FCCP
Protocol: as §1
In FIG. 4, HIB1B cells were treated for either 5 or 10 hours with either 0 μM or 25 μM FCCP. ATP levels were measured using the Calbiochem ATP assay kit. For analysis, ATP levels were compared to those of untreated cells at the 5 and 10 hour time points.

PGC-1β [8] = details: Fao cells
Protocol: (§8) Fao liver hepatoma cells were grown in RPMI (10% fetal bovine serum)+0.25 mg/ml penicillin/streptomycin at 37° C., 5% CO2.
(§9) In FIG. 6A, Fao liver hepatoma cells were treated with 2 μM FCCP for 0-48 hours. In FIGS. 6B and 6C, cells were treated for 24 hours with either 2 μM or 25 μM FCCP. RNA was extracted and analyzed as previously described.

UCP2 = details: Fao cells, 24 hour treatment, 2 μM and 25 μM FCCP
Protocol: as §8, §9

10T 1/2 fibroblasts = details: 50 μM FCCP, 16 hours
Protocol: as §5, §6

NRF-1 [9] = details: 10T 1/2 fibroblasts, 50 μM FCCP, 16 hours
Protocol: as §5, §6

COX II [10] = details: PGC-1α knock out preadipocytes, 25 μM FCCP, 24 hours
Protocol: (§10) Wild type and PGC-1α knock out preadipocytes were grown in DMEM+20% fetal bovine serum+0.25 mg/ml penicillin/streptomycin at 37° C., 10% CO2.
(§11) Wild type and PGC-1α knock out preadipocytes were treated for 24 hours with or without 25 μM FCCP. RNA was extracted using trizol and gene expression was measured using real time PCR. All expression levels were adjusted to actin and then the fold induction of expression was determined using the untreated cells as the control.

ERRα = details: PGC-1α knock out preadipocytes, 25 μM FCCP, 24 hours
Protocol: as §10, §11

NRF-1 [11] = details: PGC-1α knock out preadipocytes, 25 μM FCCP, 24 hours
Protocol: as §10, §11

PGC-1β [12] = details: PGC-1α knock out preadipocytes, 25 μM FCCP, 24 hours
Protocol: as §10, §11

[13] = system: adenine nucleotide translocase (ANT); details: PGC-1α knock out preadipocytes, 25 μM FCCP, 24 hours
Protocol: as §10, §11

cytochrome c [14] = details: PGC-1α knock out preadipocytes, 25 μM FCCP, 24 hours
Protocol: as §10, §11

[15] = in vivo; cited from earlier work
[16] = 10T 1/2 cells, 10 μM BAPTA with 50 μM FCCP
[17] = 5 hours, increasing doses of FCCP (0-200 μM)
[18] = 10T 1/2 fibroblasts, 50 μM FCCP

Protocol for mice: The procedures to be used in these experiments are as follows: IP injections of the chemical uncoupling agent FCCP are performed daily (see experimental design for dose and time information). The body temperature of the mice is measured one hour after injections so as to monitor pain and distress. If the temperature rises above 42 degrees the mice are sacrificed. The following tissues are collected from euthanized mice: brown fat, skeletal muscle, and liver, which contribute the most to standard metabolic rate. In addition, heart, pancreas, large intestine, small intestine, gall bladder, spleen, brain, testes, and ovary are collected. Tissues are used to assess PGC-1 gene expression and protein levels.
The maximum dose of FCCP that is used in this experiment is 0.5 mg/kg/day. The experiment is performed in C57 BL/6J and ob/ob (C57 BL/6J background) mice ordered from Jackson Laboratories.
Mice receive one IP injection of FCCP daily. The following experiment is repeated three times for statistical significance.
Body temperature is measured one hour after injections and weight is recorded every three days. Mice are sacrificed to avoid pain if the body temperature rises above 42 degrees. After the treatments as described above the mice are sacrificed using cervical dislocation with pre-anesthesia. […]

Compound: NC(=O)c1ncn([C@@H]2O[C@H](CO)[C@@H](O)[C@H]2O)c1N [AICAR]
- AMP Kinase activation (phospho-AMP kinase) (AMP Kinase; 500 μM AICAR, positive control): activation

Compound: O=C(O)CN(CC(=O)O)c1ccccc1OCCOc1ccccc1N(CC(=O)O)CC(=O)O [BAPTA]
- effect on FCCP-mediated induction of PGC-1α (PGC-1α [1]; 10T 1/2 cells, 10 μM BAPTA with 50 μM FCCP, 16 hours): blocked
- effect on FCCP-mediated induction of PGC-1β (PGC-1β [2]; [16]): blocked
- effect on FCCP-mediated induction of cytochrome c (cytochrome c [3]; [16]): blocked
- effect on FCCP-mediated induction of COX II (COX II [4]; [16]): blocked
- effect on FCCP-mediated induction of ATP synthase (ATP synthase; [16]): blocked

Compound: O=[N+]([O-])c1ccc(O)c([N+](=O)[O-])c1 [DNP, 2,4-dinitrophenol]
- PGC-1α expression (PGC-1α [5]; 5 hours, three concentrations of DNP (250 μM, 750 μM, 1 mM)): caused an increase; also recorded: induces
- toxic effect of large doses (animals): almost immediate onset of rigor mortis

Compound: N#CC(C#N)=NNc1ccc(OC(F)(F)F)cc1 [FCCP, carbonylcyanide-p-trifluoromethoxyphenylhydrazone]
- PGC-1α expression levels (PGC-1α [5]; 25 μM FCCP, after 5 hours, sustained for 20 additional hours): induced
- PGC-1α expression levels (PGC-1α [5]; [17]): increased
- PGC-1β expression levels (PGC-1β [6]; 25 μM FCCP, after 10-15 hours, remained induced until 25 hours): induced
- PGC-1β expression levels (PGC-1β [6]; [17]): did not increase
- PGC-1α protein expression (PGC-1α protein): induced
- cytochrome c protein levels (cytochrome c protein): induced
- AMP Kinase activation (phospho-AMP kinase) (AMP Kinase; 50 μM FCCP): activated
- induction of PGC-1 expression levels, real time PCR (PGC-1α [7]; 25 μM FCCP): 5.5 fold
- increase in PGC-1α expression, real time PCR (PGC-1α [7]; 25 μM and 50 μM FCCP): 5-6 fold
- induction of PGC-1α levels, real time PCR (PGC-1α [7]; 50 μM FCCP): 5 fold
- drop in cellular ATP levels (HIB1B brown fat cells; 5 hours, versus untreated cells): 25%
- ATP levels below that of untreated cells (HIB1B brown fat cells; 10 hours): approximately 20%
- PGC-1β expression levels (PGC-1β [8]; 2 μM FCCP, after approximately 24 hours): increased
- PGC-1β expression levels (PGC-1β [8]; 24 hour treatment, 2 μM and 25 μM FCCP): increased
- UCP 2 expression levels (UCP2): increased
- expression of the PGC-1 coactivators and their target genes after long term treatment (PGC-1α [1]; 10T 1/2 fibroblasts, 25 uM FCCP, 72 hours): remain elevated
- PGC-1α expression (PGC-1α [1]; 10T 1/2 fibroblasts, 50 μM FCCP, 16 hours): induced
- PGC-1β expression (PGC-1β [2]; [18]): induced
- cytochrome c expression (cytochrome c [3]; [18]): induced
- COX II expression (COX II [4]; [18]): induced
- ATP synthase expression (ATP synthase; [18]): induced
- lactate levels (10T 1/2 fibroblasts): induced
- NRF-1 expression (NRF-1 [9]): induced
- FCCP induction of COX II in cells that lack PGC-1α (COX II [10]): blocked
- FCCP induction of ERRα in cells that lack PGC-1α (ERRα): blocked
- FCCP induction of NRF-1 in cells that lack PGC-1α (NRF-1 [11]): blocked
- FCCP induction of PGC-1β in cells that lack PGC-1α (PGC-1β [12]): blocked
- FCCP induction of adenine nucleotide translocase (ANT) in cells that lack PGC-1α [13]: blocked
- FCCP induction of cytochrome c in cells that lack PGC-1α (cytochrome c [14]): blocked
- PGC-1α RNA and protein levels in brown fat and muscle tissue (mice; daily IP injection of FCCP): increase
- body weight and adiposity (mice; safe dose of FCCP, daily IP injection): decrease
- LD50 for FCCP relative to that of DNP [15]: about 5 times less

Compound: N.N.N.N.N.N.N.N.N.N.N.N.N.N.[Cl-].[Cl-].[Cl-].[Cl-].[Cl-].[Cl-].[O-2].[O-2].[Ru+3].[Ru+3].[Ru+4] [Ruthenium Red]
- effect on FCCP-mediated induction of PGC-1α expression (PGC-1α [5]; 5 hours, 0-50 μM Ruthenium Red with 5 μM or 25 μM FCCP, reduced at 5, 10 and 25 μM RR): blocked part

Compound: C=C1[C@@H]2CC[C@H]3[C@]4(C)C[C@H](O[C@@H]5O[C@H](CO)[C@@H](OS(=O)(=O)O)[C@H](OS(=O)(=O)O)[C@H]5OC(=O)CC(C)C)C[C@@H](C(=O)O)[C@H]4CC[C@]3(C2)[C@H]1O [atractyloside]
- PGC-1α expression (PGC-1α [5]; 5 μM atractyloside, 10 hours): increased
- PGC-1α expression (PGC-1α [5]; 50 μM atractyloside, 5 hours): increased

Compound: Antimycin A
- PGC-1α expression (PGC-1α [5]; 5 μM Antimycin A): increased
- PGC-1α expression levels (PGC-1α [5]; 10 μM Antimycin): increase

From patent publication US7691578B2, “Methods and compositions for treating obesity” (Dana-Farber Cancer Institute, Inc., priority 2004, dated 2010)
